In publication PMC6422671 (British Journal of Clinical Pharmacology, 2019):

Experiment: Clinical laboratory findings: haematology; data mean (standard deviation)
Format: in vivo, healthy men
Text: Data are mean (standard deviation).

SMILES: C[C@@H](N)c1cc(Cl)ccc1Cn1c(=S)[nH]c(=O)c2[nH]ccc21 [AZD4831]
- Basophils (45 mg fed, 24 h): 0.03 (0.01) 10^9 L^–1
- Eosinophils (45 mg fed, 24 h): 0.19 (0.10) 10^9 L^–1
- Erythrocyte MCH (45 mg fed, 24 h): 30.2 (2.0) pg
- Erythrocyte MCH concentration (45 mg fed, 24 h): 343 (14) g L^–1
- Erythrocyte MCV (45 mg fed, 24 h): 88.0 (5.6) fL
- Erythrocytes (45 mg fed, 24 h): 4.74 (0.15) 10^12 L^–1
- Haematocrit (45 mg fed, 24 h): 0.42 (0.03) ratio
- Haemoglobin (45 mg fed, 24 h): 143 (9) g L^–1
- Leukocytes (45 mg fed, 24 h): 5.51 (0.85) 10^9 L^–1
- Lymphocytes (45 mg fed, 24 h): 1.76 (0.61) 10^9 L^–1
- Monocytes (45 mg fed, 24 h): 0.34 (0.16) 10^9 L^–1
- Neutrophils (45 mg fed, 24 h): 3.11 (0.79) 10^9 L^–1
- Platelets (45 mg fed, 24 h): 227 (50) 10^9 L^–1
- Reticulocytes (45 mg fed, 24 h): 77.4 (5.4) 10^9 L^–1
- Basophils (45 mg fed, 48 h): 0.03 (0.02) 10^9 L^–1
- Eosinophils (45 mg fed, 48 h): 0.20 (0.15) 10^9 L^–1
- Erythrocyte MCH (45 mg fed, 48 h): 30.2 (1.7) pg
- Erythrocyte MCH concentration (45 mg fed, 48 h): 343 (8) g L^–1
- Erythrocyte MCV (45 mg fed, 48 h): 88.2 (5.8) fL
- Erythrocytes (45 mg fed, 48 h): 4.89 (0.11) 10^12 L^–1
- Haematocrit (45 mg fed, 48 h): 0.43 (0.03) ratio
- Haemoglobin (45 mg fed, 48 h): 148 (9) g L^–1
- Leukocytes (45 mg fed, 48 h): 5.93 (1.07) 10^9 L^–1
- Lymphocytes (45 mg fed, 48 h): 1.85 (0.77) 10^9 L^–1
- Monocytes (45 mg fed, 48 h): 0.40 (0.16) 10^9 L^–1
- Neutrophils (45 mg fed, 48 h): 3.35 (1.20) 10^9 L^–1
- Platelets (45 mg fed, 48 h): 233 (51) 10^9 L^–1
- Reticulocytes (45 mg fed, 48 h): 84.5 (7.9) 10^9 L^–1
- Basophils (45 mg fed, follow up): 0.04 (0.01) 10^9 L^–1
- Eosinophils (45 mg fed, follow up): 0.18 (0.12) 10^9 L^–1
- Erythrocyte MCH (45 mg fed, follow up): 30.7 (1.0) pg
- Erythrocyte MCH concentration (45 mg fed, follow up): 347 (11) g L^–1
- Erythrocyte MCV (45 mg fed, follow up): 88.3 (5.1) fL
- Erythrocytes (45 mg fed, follow up): 4.72 (0.16) 10^12 L^–1
- Haematocrit (45 mg fed, follow up): 0.42 (0.04) ratio
- Haemoglobin (45 mg fed, follow up): 145 (9) g L^–1
- Leukocytes (45 mg fed, follow up): 6.37 (1.60) 10^9 L^–1
- Lymphocytes (45 mg fed, follow up): 1.79 (0.37) 10^9 L^–1
- Monocytes (45 mg fed, follow up): 0.39 (0.12) 10^9 L^–1
- Neutrophils (45 mg fed, follow up): 3.85 (1.22) 10^9 L^–1
- Platelets (45 mg fed, follow up): 250 (62) 10^9 L^–1
- Reticulocytes (45 mg fed, follow up): 82.9 (10.8) 10^9 L^–1
- Basophils (135 mg fasted, 24 h): 0.02 (0.01) 10^9 L^–1
- Eosinophils (135 mg fasted, 24 h): 0.11 (0.07) 10^9 L^–1
- Erythrocyte MCH (135 mg fasted, 24 h): 31.0 (0.4) pg
- Erythrocyte MCH concentration (135 mg fasted, 24 h): 354 (5) g L^–1
- Erythrocyte MCV (135 mg fasted, 24 h): 87.5 (1.9) fL
- Erythrocytes (135 mg fasted, 24 h): 4.69 (0.26) 10^12 L^–1
- Haematocrit (135 mg fasted, 24 h): 0.41 (0.02) ratio
- Haemoglobin (135 mg fasted, 24 h): 145 (8) g L^–1
- Leukocytes (135 mg fasted, 24 h): 5.11 (1.13) 10^9 L^–1
- Lymphocytes (135 mg fasted, 24 h): 1.52 (0.40) 10^9 L^–1
- Monocytes (135 mg fasted, 24 h): 0.35 (0.12) 10^9 L^–1
- Neutrophils (135 mg fasted, 24 h): 3.00 (0.79) 10^9 L^–1
- Platelets (135 mg fasted, 24 h): 200 (25) 10^9 L^–1
- Reticulocytes (135 mg fasted, 24 h): 72.4 (19.9) 10^9 L^–1
- Basophils (135 mg fasted, 48 h): 0.03 (0.01) 10^9 L^–1
- Eosinophils (135 mg fasted, 48 h): 0.12 (0.07) 10^9 L^–1
- Erythrocyte MCH (135 mg fasted, 48 h): 30.9 (0.4) pg
- Erythrocyte MCH concentration (135 mg fasted, 48 h): 353 (7) g L^–1
- Erythrocyte MCV (135 mg fasted, 48 h): 87.4 (1.6) fL
- Erythrocytes (135 mg fasted, 48 h): 4.68 (0.30) 10^12 L^–1
- Haematocrit (135 mg fasted, 48 h): 0.41 (0.03) ratio
- Haemoglobin (135 mg fasted, 48 h): 144 (9) g L^–1
- Leukocytes (135 mg fasted, 48 h): 5.28 (1.23) 10^9 L^–1
- Lymphocytes (135 mg fasted, 48 h): 1.66 (0.47) 10^9 L^–1
- Monocytes (135 mg fasted, 48 h): 0.37 (0.11) 10^9 L^–1
- Neutrophils (135 mg fasted, 48 h): 3.00 (0.83) 10^9 L^–1
- Platelets (135 mg fasted, 48 h): 202 (29) 10^9 L^–1
- Reticulocytes (135 mg fasted, 48 h): 70.1 (15.1) 10^9 L^–1
- Basophils (135 mg fasted, follow up): 0.03 (0.01) 10^9 L^–1
- Eosinophils (135 mg fasted, follow up): 0.14 (0.09) 10^9 L^–1
- Erythrocyte MCH (135 mg fasted, follow up): 30.8 (0.5) pg
- Erythrocyte MCH concentration (135 mg fasted, follow up): 350 (11) g L^–1
- Erythrocyte MCV (135 mg fasted, follow up): 88.2 (1.7) fL
- Erythrocytes (135 mg fasted, follow up): 4.62 (0.25) 10^12 L^–1
- Haematocrit (135 mg fasted, follow up): 0.41 (0.02) ratio
- Haemoglobin (135 mg fasted, follow up): 143 (9) g L^–1
- Leukocytes (135 mg fasted, follow up): 6.80 (3.32) 10^9 L^–1
- Lymphocytes (135 mg fasted, follow up): 1.51 (0.26) 10^9 L^–1
- Monocytes (135 mg fasted, follow up): 0.48 (0.32) 10^9 L^–1
- Neutrophils (135 mg fasted, follow up): 4.46 (2.99) 10^9 L^–1
- Platelets (135 mg fasted, follow up): 218 (24) 10^9 L^–1
- Reticulocytes (135 mg fasted, follow up): 82.8 (19.3) 10^9 L^–1
- Basophils (405 mg fasted, 24 h): 0.04 (0.01) 10^9 L^–1
- Eosinophils (405 mg fasted, 24 h): 0.18 (0.15) 10^9 L^–1
- Erythrocyte MCH (405 mg fasted, 24 h): 30.8 (1.5) pg
- Erythrocyte MCH concentration (405 mg fasted, 24 h): 345 (8) g L^–1
- Erythrocyte MCV (405 mg fasted, 24 h): 89.4 (3.8) fL
- Erythrocytes (405 mg fasted, 24 h): 4.81 (0.31) 10^12 L^–1
- Haematocrit (405 mg fasted, 24 h): 0.43 (0.01) ratio
- Haemoglobin (405 mg fasted, 24 h): 148 (6) g L^–1
- Leukocytes (405 mg fasted, 24 h): 5.53 (1.12) 10^9 L^–1
- Lymphocytes (405 mg fasted, 24 h): 1.40 (0.19) 10^9 L^–1
- Monocytes (405 mg fasted, 24 h): 0.34 (0.09) 10^9 L^–1
- Neutrophils (405 mg fasted, 24 h): 3.47 (0.79) 10^9 L^–1
- Platelets (405 mg fasted, 24 h): 190 (23) 10^9 L^–1
- Reticulocytes (405 mg fasted, 24 h): 68.5 (16.4) 10^9 L^–1
- Basophils (405 mg fasted, 48 h): 0.03 (0.01) 10^9 L^–1
- Eosinophils (405 mg fasted, 48 h): 0.24 (0.26) 10^9 L^–1
- Erythrocyte MCH (405 mg fasted, 48 h): 31.0 (1.6) pg
- Erythrocyte MCH concentration (405 mg fasted, 48 h): 347 (7) g L^–1
- Erythrocyte MCV (405 mg fasted, 48 h): 89.4 (3.7) fL
- Erythrocytes (405 mg fasted, 48 h): 4.67 (0.22) 10^12 L^–1
- Haematocrit (405 mg fasted, 48 h): 0.42 (0.01) ratio
- Haemoglobin (405 mg fasted, 48 h): 145 (5) g L^–1
- Leukocytes (405 mg fasted, 48 h): 5.53 (1.14) 10^9 L^–1
- Lymphocytes (405 mg fasted, 48 h): 1.51 (0.30) 10^9 L^–1
- Monocytes (405 mg fasted, 48 h): 0.40 (0.14) 10^9 L^–1
- Neutrophils (405 mg fasted, 48 h): 3.22 (0.62) 10^9 L^–1
- Platelets (405 mg fasted, 48 h): 187 (20) 10^9 L^–1
- Reticulocytes (405 mg fasted, 48 h): 66.3 (20.0) 10^9 L^–1
- Basophils (405 mg fasted, follow up): 0.04 (0.01) 10^9 L^–1
- Eosinophils (405 mg fasted, follow up): 0.27 (0.27) 10^9 L^–1
- Erythrocyte MCH (405 mg fasted, follow up): 31.0 (1.1) pg
- Erythrocyte MCH concentration (405 mg fasted, follow up): 345 (5) g L^–1
- Erythrocyte MCV (405 mg fasted, follow up): 89.8 (3.6) fL
- Erythrocytes (405 mg fasted, follow up): 4.83 (0.35) 10^12 L^–1
- Haematocrit (405 mg fasted, follow up): 0.43 (0.02) ratio
- Haemoglobin (405 mg fasted, follow up): 149 (8) g L^–1
- Leukocytes (405 mg fasted, follow up): 5.84 (1.41) 10^9 L^–1
- Lymphocytes (405 mg fasted, follow up): 1.43 (0.19) 10^9 L^–1
- Monocytes (405 mg fasted, follow up): 0.40 (0.08) 10^9 L^–1
- Neutrophils (405 mg fasted, follow up): 3.54 (1.02) 10^9 L^–1
- Platelets (405 mg fasted, follow up): 205 (21) 10^9 L^–1
- Reticulocytes (405 mg fasted, follow up): 78.6 (19.4) 10^9 L^–1
